{
  "source": "a compilation of properties of binary mixtures (doi:10.1039/c5cp04050g)",
  "test": "xn = mol fraction of the nth substance listed",
  "settings": "100 kPa",
  "data": [
    {"smiles": "CCCC[n+]1ccn(C)c1.[Cl-]", "note": "+ NCCO", "values": [
      {"measurement": "viscosity", "setting": "293 K, x2 = 0.8", "value": 36.2, "unit": "mPa·s"},
      {"measurement": "viscosity", "setting": "298 K, x2 = 0", "value": 19, "unit": "mPa·s"},
      {"measurement": "viscosity", "setting": "298 K, x2 = 0.5", "value": 134, "unit": "mPa·s"},
      {"measurement": "viscosity", "setting": "298 K, x2 = 0.677", "value": 47.4, "unit": "mPa·s"},
      {"measurement": "viscosity", "setting": "298 K, x2 = 0.8", "value": 28.1, "unit": "mPa·s"},
      {"measurement": "viscosity", "setting": "303 K, x2 = 0.8", "value": 22.4, "unit": "mPa·s"},
      {"measurement": "viscosity", "setting": "303.1 K, x2 = 0", "value": 15.2, "unit": "mPa·s"},
      {"measurement": "viscosity", "setting": "313.1 K, x2 = 0", "value": 9.93, "unit": "mPa·s"},
      {"measurement": "viscosity", "setting": "313.1 K, x2 = 0.8", "value": 14.9, "unit": "mPa·s"},
      {"measurement": "viscosity", "setting": "323.1 K, x2 = 0", "value": 6.88, "unit": "mPa·s"},
      {"measurement": "viscosity", "setting": "323.1 K, x2 = 0.5", "value": 36.7, "unit": "mPa·s"},
      {"measurement": "viscosity", "setting": "323.1 K, x2 = 0.677", "value": 16.6, "unit": "mPa·s"},
      {"measurement": "viscosity", "setting": "323.1 K, x2 = 0.8", "value": 10.5, "unit": "mPa·s"},
      {"measurement": "viscosity", "setting": "333.1 K, x2 = 0.8", "value": 7.41, "unit": "mPa·s"},
      {"measurement": "viscosity", "setting": "333.2 K, x2 = 0", "value": 5.03, "unit": "mPa·s"},
      {"measurement": "viscosity", "setting": "333.2 K, x2 = 0.677", "value": 12, "unit": "mPa·s"},
      {"measurement": "viscosity", "setting": "343.2 K, x2 = 0", "value": 3.69, "unit": "mPa·s"},
      {"measurement": "viscosity", "setting": "343.2 K, x2 = 0.5", "value": 17.9, "unit": "mPa·s"},
      {"measurement": "viscosity", "setting": "343.2 K, x2 = 0.677", "value": 9.1, "unit": "mPa·s"},
      {"measurement": "viscosity", "setting": "343.2 K, x2 = 0.8", "value": 5.58, "unit": "mPa·s"}
    ]}
  ]
}
